Experimental data published in patent publication US20070225364A1, “Use of bismuth subgallate and borneol in treating melanoma” (HEDONIST BIOCHEMICAL TECHNOLOGIES CO., LTD., priority 2006, published 2007).
Several values for one entry are separate records, joined by “and”; a condition that tells them apart may be missing. Identical values can stand only once.

Columns and labels:
[1] = system: A375 human melanoma cells; experiment: Cytotoxicity assay (MTT relative viability), A375 cells; format: cell-based; conditions: BSG and BO applied together, 72 hours, FIGS. 1A and 1B
Protocol: (§1) A375 human melanoma cells (obtained from Food Industry Research and Development Institute, Hsinchu, Taiwan, R.O.C. under accession number CCRC 60039) and normal human keratinocyte (HaCaT) cells (obtained from Dr. Lin P., Institute of Medical & Molecular Toxicology, Chung Shan Medical University, Taichung, Taiwan) were used for the test.
(§2) A375 and HaCaT cells were incubated in 96-well plates (Corning Incorporated COSTAR® 3599) at a density of 3×10^3 cells/well and 5×10^3 cells/well, respectively. After 24 hours, the cells were treated with various concentrations of bismuth subgallate (BSG) and borneol (BO) for 72 hours. The cytotoxicity effect of BSG and BO was estimated by the relative viability (%) of the cells, which was determined by measuring the reduction of tetrazolium salt MTT using a Microplate reader (Thermo Lab systems Multishkan Spectrum) at a test wavelength of 550 nm and a reference wavelength of 690 nm. The relative viability is calculated by the following equation: Relative Viability(%)=ODtestODcontrol×100 The results are represented by the means plus standard errors (Mean±SE) of five repetitions.

[2] = system: normal human keratinocyte (HaCaT) cells; experiment: Cytotoxicity assay (MTT relative viability), HaCaT cells; format: cell-based; conditions: BSG and BO applied together, 72 hours, FIG. 2
Protocol: as §1, §2

Row | Molecule | lowest concentration at which reduction of relative viability of A375 cells is observed [1] [µg/mL] | concentrations at which cytotoxicity effect on HaCaT cells is observed (only at high concentrations) [2]
1 | CC1(C)C2CCC1(C)C(O)C2 (stereo not drawn) [BO, borneol] | 2.5 | –
2 | bismuth subgallate [BSG] | 17.5 | 140 µg/mL and 280 µg/mL
